From article PMC11904993, “Humanized Candida and NanoBiT Assays Expedite Discovery of Bdf1 Bromodomain Inhibitors With Antifungal Potential” (Advanced Science, 2025)
Values joined by “and” are separate entries in the source; they are usually repeats but may differ in a detail not shown here. Identical values can stand only once. Like-named read-outs stand apart in the source and are kept apart here.

Tests used:
CgBdf1 BD1 = CgBdf1 BD1 (Candida glabrata, UniProt Q6FWV7); test: HTRF assay, inhibition of H4ac4 peptide binding; design: species or system C. glabrata; conditions: for HTRF signal, normalized (Figure 5A data): 240 min
Sequence of CgBdf1 BD1 (Q6FWV7 entry or part of it): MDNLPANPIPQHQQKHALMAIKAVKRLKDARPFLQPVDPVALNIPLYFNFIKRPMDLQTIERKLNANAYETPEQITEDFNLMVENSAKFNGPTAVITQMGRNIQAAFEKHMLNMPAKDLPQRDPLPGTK

C. auris Bdf1 BD1 = C. auris Bdf1 BD1 (Candidozyma auris (Candida auris), UniProt A0AAW0VEM6); test: HTRF assay, inhibition of H4ac4 peptide binding
Sequence of C. auris Bdf1 BD1 (A0AAW0VEM6 entry or part of it): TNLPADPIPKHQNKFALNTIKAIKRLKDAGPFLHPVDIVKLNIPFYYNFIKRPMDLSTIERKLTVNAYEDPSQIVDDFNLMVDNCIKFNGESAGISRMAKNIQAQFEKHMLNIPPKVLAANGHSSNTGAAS

C. auris Bdf1 BD2 = C. auris Bdf1 BD2 (Candidozyma auris (Candida auris), UniProt A0AAW0VEM6); test: HTRF assay, inhibition of H4ac4 peptide binding
Sequence of C. auris Bdf1 BD2 (A0AAW0VEM6 entry or part of it): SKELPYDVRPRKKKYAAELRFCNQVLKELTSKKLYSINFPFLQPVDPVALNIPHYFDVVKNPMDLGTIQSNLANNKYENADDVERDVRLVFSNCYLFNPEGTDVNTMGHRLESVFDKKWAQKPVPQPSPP

C. auris = test: Growth in liquid media; format: cell-based; conditions: Fig 5C; for Growth (%): C. auris
Procedure: (§1) Strains were presented in Table S8 (Supporting Information). Cells from a single colony were diluted in 0.85% NaCl before being counted using a Neubauer chamber. They were diluted to a final concentration of 6500 cells mL^−1 per well for all clinical strains of C. albicans and C. glabrata; 65 000 cells mL^−1 per well for C. auris; 13 500 cells mL^−1 per well for C. parapsilosis; 3375 cells mL^−1 per well for C. krusei and 1687.5 cells mL^−1 per well for C. tropicalis, in a sterile 96‐well plate. Cells were then grown in SC medium with or without chemical compounds at 30 °C with regular shaking. The significance of growth defects was assessed using Holm‐Sidak method by GraphPad Prism 10.

C. krusei = test: Growth in liquid media; format: cell-based; conditions: 1.5625 µM, Fig 5C
Procedure: as §1

[1] = read-out: HTRF signal, normalized (Figure 5A data)

CC(=O)N1c2ccc(-c3ccc(C(=O)O)cc3)cc2C(Nc2ccc(Cl)cc2)CC1C (centres unmarked) [I-BET726]
HTRF signal, normalized (Figure 5A data) (CgBdf1 BD1; 0.00524 µM): 100.65 and 90.91 and 103.41 | activity at 0.01311 µM (CgBdf1 BD1; 4 h, CgBD1, 13.11 nM, read-out: HTRF signal, normalized (Figure 5A data)): 104% | activity at 0.03277 µM (CgBdf1 BD1; 4 h, CgBD1, 32.77 nM, read-out: HTRF signal, normalized (Figure 5A data)): 101% | activity at 0.08192 µM (CgBdf1 BD1; 4 h, CgBD1, 81.92 nM, read-out: HTRF signal, normalized (Figure 5A data)): 100% | activity at 0.2048 µM (CgBdf1 BD1; 4 h, CgBD1, 204.8 nM, read-out: HTRF signal, normalized (Figure 5A data)): 95.5% | activity at 0.512 µM (CgBdf1 BD1; 4 h, CgBD1, 512 nM, read-out: HTRF signal, normalized (Figure 5A data)): 85.3% | activity at 3.2 µM (CgBdf1 BD1; 4 h, CgBD1, 3200 nM, read-out: HTRF signal, normalized (Figure 5A data)): 40.5% | activity at 8 µM (CgBdf1 BD1; 4 h, CgBD1, 8000 nM, read-out: HTRF signal, normalized (Figure 5A data)): 10.1% | activity at 0.00524 µM (CgBdf1 BD1; 4 h, read-out: HTRF signal, normalized (Figure 5A data)): 103% | HTRF signal, normalized (Figure 5A data) (CgBdf1 BD1; CgBD1, 2.10 nM, 0.0021 µM): 106.06 and 99.07 and 83.43 and 98.63 | HTRF signal, normalized (Figure 5A data) (CgBdf1 BD1; CgBD1, 13.11 nM, 0.01311 µM): 90.77 and 95.51 and 103.15 | HTRF signal, normalized (Figure 5A data) (CgBdf1 BD1; CgBD1, 32.77 nM, 0.03277 µM): 93.49 and 101.00 and 99.77 | HTRF signal, normalized (Figure 5A data) (CgBdf1 BD1; CgBD1, 204.8 nM, 0.2048 µM): 107.13 and 88.05 and 91.40 | HTRF signal, normalized (Figure 5A data) (CgBdf1 BD1; CgBD1, 512 nM, 0.512 µM): 93.88 and 86.26 and 86.89 | HTRF signal, normalized (Figure 5A data) (CgBdf1 BD1; CgBD1, 1280 nM, 1.28 µM): 77.62 and 66.65 and 70.52 | HTRF signal, normalized (Figure 5A data) (CgBdf1 BD1; CgBD1, 3200 nM, 3.2 µM): 48.37 and 45.98 and 46.29 | HTRF signal, normalized (Figure 5A data) (CgBdf1 BD1; CgBD1, 8000 nM, 8 µM): 13.26 and 14.56 and 18.60 | IC50 (CgBdf1 BD1; Fig 5A, four replicates, read-out: IC50 (μM) BD1, C. gla. Bdf1): 2.52 ± 0.14 µM | remaining activity at 0.0021 µM (C. auris Bdf1 BD1; CauBD1, 2.10 nM, read-out: HTRF signal, normalized (Figure 5A data)): 105% | remaining activity at 0.01311 µM (C. auris Bdf1 BD1; CauBD1, 13.11 nM, read-out: HTRF signal, normalized (Figure 5A data)): 103% | remaining activity at 0.03277 µM (C. auris Bdf1 BD1; CauBD1, 32.77 nM, read-out: HTRF signal, normalized (Figure 5A data)): 106% | remaining activity at 0.2048 µM (C. auris Bdf1 BD1; CauBD1, 204.8 nM, read-out: HTRF signal, normalized (Figure 5A data)): 107% | remaining activity at 1.28 µM (C. auris Bdf1 BD1; CauBD1, 1280 nM, read-out: HTRF signal, normalized (Figure 5A data)): 100% | remaining activity at 3.2 µM (C. auris Bdf1 BD1; CauBD1, 3200 nM, read-out: HTRF signal, normalized (Figure 5A data)): 74.9% | remaining activity at 8 µM (C. auris Bdf1 BD1; CauBD1, 8000 nM, read-out: HTRF signal, normalized (Figure 5A data)): 34.7% | IC50 (C. auris Bdf1 BD1; Fig 5A, four replicates, read-out: IC50 (μM) BD1, C. aur. Bdf1): 14.7 ± 0.1 µM | remaining activity at 0.00524 µM (C. auris Bdf1 BD1; [1]): 103% | remaining activity at 0.512 µM (C. auris Bdf1 BD1; [1]): 103% | remaining activity at 0.0021 µM (C. auris Bdf1 BD2; CauBD2, 2.10 nM, read-out: HTRF signal, normalized (Figure 5A data)): 97.4% | remaining activity at 0.01311 µM (C. auris Bdf1 BD2; CauBD2, 13.11 nM, read-out: HTRF signal, normalized (Figure 5A data)): 85.4% | remaining activity at 0.03277 µM (C. auris Bdf1 BD2; CauBD2, 32.77 nM, read-out: HTRF signal, normalized (Figure 5A data)): 75% | remaining activity at 0.08192 µM (C. auris Bdf1 BD2; CauBD2, 81.92 nM, read-out: HTRF signal, normalized (Figure 5A data)): 52.6% | remaining activity at 0.2048 µM (C. auris Bdf1 BD2; CauBD2, 204.8 nM, read-out: HTRF signal, normalized (Figure 5A data)): 31% | remaining activity at 0.512 µM (C. auris Bdf1 BD2; CauBD2, 512 nM, read-out: HTRF signal, normalized (Figure 5A data)): 12.9% | remaining activity at 3.2 µM (C. auris Bdf1 BD2; CauBD2, 3200 nM, read-out: HTRF signal, normalized (Figure 5A data)): 5.12% | remaining activity at 8 µM (C. auris Bdf1 BD2; CauBD2, 8000 nM, read-out: HTRF signal, normalized (Figure 5A data)): 5.06% | IC50 (C. auris Bdf1 BD2; Fig 5A, four replicates, read-out: IC50 (μM) BD2, C. aur. Bdf1): 0.23 ± 0.02 µM | remaining activity at 0.00524 µM (C. auris Bdf1 BD2; [1]): 90.6% | remaining activity at 8 µM (C. auris Bdf1 BD2; [1]): 2.46% | Growth (%) (C. auris; 1.5625 µM): 91% and 92% and 90% | Growth (%) (C. auris; 3.125 µM): 85% and 86% and 87% | Growth (%) (C. auris; 25 µM): 73% and 79% | EC50 (C. auris; Candidozyma auris): > 50 µM | Growth (%) (C. krusei): 97% and 93%
